Results taken from ChEMBL document CHEMBL1201862, “PubChem BioAssay data set” (2004).
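All cell lines were grown in 96-well plates and treated with compound for 48 hours. GI50 marks 50% less growth.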 Active and inactive are the calls of the source. No stated cut-off is given here; in the data, active = GI50 up to about 1.1 µM and inactive = higher.

Columns and labels:
Assay in all cases: NCI-60 cell line screen, 48 h
A549 = system: A549
EKVX = system: EKVX
HL-60 = system: HL-60
MDA-MB-435 = system: MDA-MB-435
OVCAR-5 = system: OVCAR-5
OVCAR-8 = system: OVCAR-8
PC-3 = system: PC-3
SF-268 = system: SF-268
SF-295 = system: SF-295
SF-539 = system: SF-539
SK-MEL-2 = system: SK-MEL-2
SK-MEL-5 = system: SK-MEL-5
SN12C = system: SN12C
SNB-19 = system: SNB-19
SNB-75 = system: SNB-75
U-251 = system: U-251
UACC-62 = system: UACC-62

Measured: GI50

O=C1CC2(CCCc3sccc32)C(=O)N1 (stereo unspecified)
inactive: A549 > 100 µM | EKVX > 100 µM | HL-60 > 100 µM | MDA-MB-435 > 100 µM | OVCAR-5 > 100 µM | OVCAR-8 > 100 µM | PC-3 > 100 µM | SF-268 > 100 µM | SF-295 > 100 µM | SF-539 > 100 µM | SK-MEL-2 > 100 µM | SK-MEL-5 > 100 µM | SN12C > 100 µM | SNB-19 > 100 µM | SNB-75 > 100 µM | U-251 > 100 µM | UACC-62 > 100 µM

CCSc1[nH]c(NC(=S)NC(=O)c2ccccc2Cl)c(C(N)=O)c1C(N)=O
inactive: A549 > 10 µM | EKVX > 10 µM | HL-60 > 10 µM | MDA-MB-435 > 10 µM | OVCAR-8 > 10 µM | PC-3 > 10 µM | SF-268 > 10 µM | SF-295 > 10 µM | SK-MEL-5 > 10 µM | SN12C > 10 µM | SNB-75 > 10 µM | UACC-62 > 10 µM

COC(=O)/C=C1\C(CO[Si](C)(C)C(C)(C)C)OC(n2cc(C)c(=O)n(C)c2=O)C1O[Si](C)(C)C(C)(C)C (stereo unspecified)
inactive: A549 > 100 µM | EKVX > 100 µM | MDA-MB-435 62.4 µM | OVCAR-5 > 100 µM | OVCAR-8 > 100 µM | PC-3 48.5 µM | SF-268 > 100 µM | SF-295 > 100 µM | SK-MEL-2 > 100 µM | SK-MEL-5 69.7 µM | SN12C > 100 µM | SNB-19 > 100 µM | SNB-75 > 100 µM | U-251 81.7 µM | UACC-62 > 100 µM

CC1C[C@]2(C)C(=O)N(c3ccccc3)C(=N)[C@@H]2N(C)c2ccccc21 (stereo partly specified)
inactive: A549 > 100 µM | EKVX > 100 µM | HL-60 > 100 µM | MDA-MB-435 > 100 µM | OVCAR-5 > 100 µM | OVCAR-8 > 100 µM | PC-3 > 100 µM | SF-268 > 100 µM | SF-295 > 100 µM | SF-539 > 100 µM | SK-MEL-2 > 100 µM | SK-MEL-5 > 100 µM | SN12C 10.8 µM | SNB-19 > 100 µM | SNB-75 79.3 µM | UACC-62 > 100 µM

OC1CCCCCCCCCCC1SCCCCl (stereo unspecified)
inactive: A549 > 100 µM | EKVX > 100 µM | HL-60 > 100 µM | MDA-MB-435 > 100 µM | OVCAR-5 > 100 µM | OVCAR-8 > 100 µM | PC-3 > 100 µM | SF-268 > 100 µM | SF-295 > 100 µM | SF-539 > 100 µM | SK-MEL-2 > 100 µM | SK-MEL-5 > 100 µM | SN12C > 100 µM | SNB-19 > 100 µM | U-251 > 100 µM | UACC-62 > 100 µM

Cc1ccc(S(=O)(=O)n2c3c(c4ccccc42)CCN2C[C@H]([C@H](C)Br)CC[C@@H]32)cc1
inactive: A549 > 100 µM | EKVX > 100 µM | HL-60 6.46 µM | MDA-MB-435 32.1 µM | OVCAR-5 > 100 µM | OVCAR-8 > 100 µM | PC-3 > 100 µM | SF-268 > 100 µM | SF-295 > 100 µM | SF-539 > 100 µM | SK-MEL-2 > 100 µM | SK-MEL-5 29.2 µM | SNB-19 > 100 µM | SNB-75 > 100 µM | U-251 > 100 µM | UACC-62 > 100 µM

CC(C)C1=CC23CCC4C(C)(C(=O)O)CCCC4(C)C2CC1C1C(=O)N(c2ccccc2N2C(=O)C4C5CC6C7(C)CCCC(C)(C(=O)O)C7CCC6(C=C5C(C)C)C4C2=O)C(=O)C13 (stereo unspecified)
inactive: A549 14 µM | EKVX 3.64 µM | HL-60 6.38 µM | MDA-MB-435 3.63 µM | OVCAR-5 12.2 µM | OVCAR-8 4.52 µM | PC-3 3.23 µM | SF-268 3.09 µM | SF-539 3.1 µM | SK-MEL-2 12.2 µM | SK-MEL-5 5.83 µM | SN12C 9.06 µM | SNB-19 4.79 µM | U-251 3.16 µM
